Columns and labels:
HBV = assay: HepAD38 antiviral assay: reduction of viral product accumulation (virion DNA by qPCR, HBsAg or HBeAg by ELISA); format: cell-based; settings: Hepatitis B virus, 120 h; HepAD38 cells, five days after compound addition; 50% reduction of viral product accumulation relative to no drug controls; read-out: HepAD38 EC50
Experimental: (§1) Methods: HepAD38 cells are maintained as previously reported (Ladner et al, Antimicrob. Agents Chemother. 1997, […], 1715). Briefly, cells are passaged upon attaining confluency in DMEM/F12 media in the presence of 10% FBS, Penn/Strep, 250 μg/mL G418, and 1 ug/ml tetracycline. Novel compounds are screened by first washing cells three times with PBS to remove tetracycline, and plating in 96 well plates at 35,000 cells/well. Compounds dissolved in DMSO are then diluted 1:200 into wells containing cells. Five days after compound addition, material is harvested for analysis. For an extended 8 day analysis, cells are plated and treated as described above, but media and compound are refreshed on d2 and d5 post initial treatment.
On harvest day, virion DNA is obtained by lysing with Sidestep Lysis and Stabilization Buffer and then quantified via quantitative real time PCR. Commercially available ELISA kits are used to quantitate the viral proteins HBsAg (Alpco) or HbeAg (US Biological) by following the manufacturer's recommended protocol after diluting samples to match the linear range of their respective assays. Irrespective of readout, compound concentrations that reduce viral product accumulation in the cell lysates or supernatants by 50% relative to no drug controls (EC50) are reported; EC50 ranges are as follows: A<1 μM; B 1-10 μM; C>10 μM.

[1] = Compound toxicity, ATPLite total ATP levels; format: cell-based; settings: human, HepAD38 cells; 15,000 cells/well, three days after compound addition; 50% reduction of total ATP levels relative to no drug controls
Experimental: as §1
Compound toxicity is evaluated by seeding cells at 15,000 cells/well and treating with compound as described above. Three days after compound addition, cells are treated with ATPLite reagent and compound concentrations that reduce total ATP levels in wells by 50% relative to no drug controls (CC50) are reported; CC50 ranges are as follows: A>30 μM; B 10-30 μM; C<10 μM.

Compound	EC50 (HBV) [nM]	CC50 at 3 days [1] [µM]
O=S(=O)(c1cc2nc(-c3ccccc3)[nH]c2cc1Cl)N1CCC(O)CC1 [Example 2]	> 10000	< 10
O=S(=O)(c1cc2nc(-c3cc(F)c(F)c(F)c3)[nH]c2cc1Cl)N1CCC(O)CC1 [Example 3]	> 10000	> 30
O=S(=O)(c1c(Cl)ccc2c(-c3ccccc3)n[nH]c12)N1CCC(O)CC1 [Example 4]	> 10000	> 30
O=S(=O)(c1c(Cl)ccc2c(-c3cc(F)c(F)c(F)c3)n[nH]c12)N1CCC(O)CC1 [Example 5]	1000 to 10000	> 30
O=S(=O)(c1cc(-c2n[nH]c3ccccc23)ccc1Cl)N1CCC(O)CC1 [Example 6]	> 10000	> 30
O=S(=O)(c1cc(-c2ncc(-c3ccc(F)c(F)c3)[nH]2)cs1)N1CCC(O)CC1 [Example 7]	1000 to 10000	> 30
O=S(=O)(c1cc(-c2cc(-c3ccc(F)c(F)c3)[nH]n2)ccc1Cl)N1CCC(O)CC1 [Example 8]	< 1000	10 to 30
O=S(=O)(c1cc(-c2nc3ccccc3[nH]2)ccc1Cl)N1CCC(O)CC1 [Example 9]	> 10000	10 to 30
O=S(=O)(c1cc(-c2nc3cc(F)c(F)cc3[nH]2)ccc1Cl)N1CCC(O)CC1 [Example 10]	1000 to 10000	> 30
O=S(=O)(c1cc(-c2ncc(-c3ccccc3)[nH]2)ccc1Cl)N1CCC(O)CC1 [Example 11]	1000 to 10000	> 30
O=S(=O)(c1cc(-c2ncc(-c3ccc(F)c(F)c3)[nH]2)ccc1Cl)N1CCC(O)CC1 [Example 12]	< 1000	> 30
O=S(=O)(c1cc(-c2ncc(-c3ccc(F)c(Cl)c3)[nH]2)ccc1Cl)N1CCC(O)CC1 [Example 13]	< 1000	10 to 30
O=S(=O)(c1cc(-c2ncc(-c3ccc(F)c(Br)c3)[nH]2)ccc1Cl)N1CCC(O)CC1 [Example 14]	< 1000	10 to 30
O=S(=O)(c1ccc2[nH]c(-c3ccccc3)nc2c1)N1CCC(O)CC1 [Example 15]	> 10000	> 30
O=S(=O)(c1cc(-c2cnc(-c3ccc(F)c(F)c3)[nH]2)ccc1Cl)N1CCC(O)CC1 [Example 16]	1000 to 10000	> 30
O=S(=O)(c1cc(-c2nc(-c3ccc(Br)c(F)c3)c[nH]2)ccc1Cl)N1CCC(O)CC1 [Example 18]	< 1000	10 to 30
O=S(=O)(c1cc(-c2ncc(-c3cccs3)[nH]2)ccc1Cl)N1CCC(O)CC1 [Example 21]	< 1000	> 30
N#Cc1cc(-c2cnc(-c3ccc(Cl)c(S(=O)(=O)N4CCC(O)CC4)c3)[nH]2)ccc1F [Example 22]	< 1000	> 30
O=S(=O)(c1cc(-c2nnc(-c3ccc(F)c(F)c3)[nH]2)ccc1Cl)N1CCC(O)CC1 [Example 23]	1000 to 10000	10 to 30
O=S(=O)(c1cc(-c2cc(-c3ccc(F)c(Br)c3)[nH]n2)ccc1Cl)N1CCC(O)CC1 [Example 24]	1000 to 10000	< 10

Compound	EC50 (HBV) [nM]	CC50 at 3 days [1] [µM]
Cc1cc(-c2cc(-c3ccc(Cl)c(S(=O)(=O)N4CCC(O)CC4)c3)n[nH]2)ccc1F [Example 25]	1000 to 10000	10 to 30
O=S(=O)(c1cc(-c2ncc(-c3ccc(Br)c(F)c3)[nH]2)ccc1Cl)N1CC[C@@H](O)C1 [Example 247]	> 10000	–
O=S(=O)(c1cc(-c2nc(-c3ccc(F)c(C(F)F)c3)c[nH]2)ccc1Cl)N1CCC(O)CC1 [Example 248]	> 10000	–
O=S(=O)(c1cc(-c2nc(-c3ccc(Br)c(F)c3)c[nH]2)ccc1Cl)N1CCN(C2CCCCC2F)CC1 (stereo not shown) [Example 249]	< 1000	–
O=S(=O)(c1cc(-c2nc(-c3ccc(Br)c(F)c3)c[nH]2)ccc1Cl)N1CCN([C@@H]2CCCC[C@H]2O)CC1 [Example 250]	< 1000	–
COC(=O)NCCCCCCCNS(=O)(=O)c1cc(-c2nc(-c3ccc(Br)c(F)c3)c[nH]2)ccc1Cl [Example 251]	< 1000	–
CC(C)(C)OC(=O)NCCCCCCCNS(=O)(=O)c1cc(-c2nc(-c3ccc(Br)c(F)c3)c[nH]2)ccc1Cl [Example 252]	< 1000	–
O=S(=O)(c1cc(-c2nc(-c3ccc(Br)c(F)c3)c[nH]2)ccc1Cl)N1CC[C@@H](CO)C1 [Example 253]	< 1000	–
O=S(=O)(c1cc(-c2nc(-c3ccc(Br)c(F)c3)c[nH]2)ccc1Cl)N1CC[C@H](CO)C1 [Example 254]	< 1000	–
O=S(=O)(c1cc(-c2nc(-c3ccc(Br)c(F)c3)c[nH]2)ccc1Cl)N1CC(O)C(CO)C1 (stereo not shown) [Example 255]	< 1000	–
O=S(=O)(c1cc(-c2ncc(-c3ccc(Br)c(F)c3)[nH]2)ccc1Cl)N1CCC2(O)CC2C1 (stereo not shown) [Example 256]	< 1000	–
O=S(=O)(c1cc(-c2ncc(-c3ccc(Br)c(F)c3)[nH]2)ccc1Cl)N1CCC2CC2(O)C1 (stereo not shown) [Example 257]	< 1000	–
CC1(C)CN(S(=O)(=O)c2cc(-c3ncc(-c4ccc(Br)c(F)c4)[nH]3)ccc2Cl)CCC1O (stereo not shown) [Example 258]	< 1000	–
O=S(=O)(c1cc(-c2nc(-c3ccc(Br)c(F)c3)c[nH]2)ccc1Cl)N1C[C@H](O)[C@@H](O)C1 [Example 259]	< 1000	–
O=S(=O)(c1cc(-c2ncc(-c3ccc(Br)c(F)c3)[nH]2)ccc1Cl)N1CCC[C@@H](CO)C1 [Example 261]	< 1000	–
O=S(=O)(c1cc(-c2ncc(-c3ccc(Br)c(F)c3)[nH]2)ccc1Cl)N1CCC[C@H](CO)C1 [Example 262]	< 1000	–
O=S(=O)(c1cc(-c2nc(-c3ccc(Br)c(F)c3)c[nH]2)ccc1Cl)N1CCC[C@H](O)[C@H](O)C1 [Example 263]	< 1000	–
O=S(=O)(c1cc(-c2nc(-c3ccc(Br)c(F)c3)c[nH]2)ccc1Cl)N1CCC[C@@H](O)[C@@H](O)C1 [Example 264]	< 1000	–
O=S(=O)(c1cc(-c2nc(-c3ccc(Br)c(F)c3)c[nH]2)ccc1Cl)N1CCn2c(nnc2C(F)(F)F)C1 [Example 265]	< 1000	–
O=S(=O)(c1cc(-c2nc(-c3ccc(Br)c(F)c3)c[nH]2)ccc1Cl)N1CCCOCC1 [Example 266]	< 1000	–

Compound	EC50 (HBV) [nM]	CC50 at 3 days [1] [µM]
O=S(=O)(c1cc(-c2nc(-c3ccc(Br)c(F)c3)c[nH]2)ccc1F)N1CCC(O)CC1 [Example 267]	< 1000	–
O=S(=O)(c1cc(-c2ncc(-c3ccc(Br)c(F)c3)[nH]2)ccc1Cl)N1CCC[C@@H](O)C1 [Example 268]	< 1000	–
O=S(=O)(c1cc(-c2ncc(-c3ccc(Br)c(F)c3)[nH]2)ccc1Cl)N1CCCCC(CO)C1 (stereo not shown) [Example 269]	< 1000	–
O=S(=O)(c1cc(-c2ncc(-c3ccc(Br)c(F)c3)[nH]2)ccc1Cl)N1CC[C@H](O)[C@@H](C(F)(F)F)C1 [Example 270]	< 1000	–
O=S(=O)(c1cc(-c2ncc(-c3ccc(Br)c(F)c3)[nH]2)ccc1Cl)N1CC[C@H](O)C1 [Example 271]	< 1000	–
COC(=O)N1C[C@@H]2[C@@H](CNS(=O)(=O)c3cc(-c4ncc(-c5ccc(Br)c(F)c5)[nH]4)ccc3Cl)[C@@H]2C1 [Example 272]	1000 to 10000	–
COC(=O)NC1CN(S(=O)(=O)c2cc(-c3ncc(-c4ccc(Br)c(F)c4)[nH]3)ccc2Cl)C1 [Example 273]	< 1000	–
COC(=O)NCC1CCN(S(=O)(=O)c2cc(-c3ncc(-c4ccc(Br)c(F)c4)[nH]3)ccc2Cl)C1 (stereo not shown) [Example 274]	< 1000	–
O=S(=O)(c1cc(-c2nc(-c3ccc(Br)c(F)c3)c[nH]2)ccc1Cl)N1C[C@H](O)C[C@@H]2C[C@@H]2C1 [Example 275]	< 1000	–
O=S(=O)(c1cc(-c2nc(-c3ccc(Br)c(F)c3)c[nH]2)ccc1Cl)N1CCN(c2ncccc2F)CC1 [Example 276]	< 1000	–
O=S(=O)(c1cc(-c2nc(-c3ccc(Br)c(F)c3)c[nH]2)ccc1Cl)N1CCC[C@@H](O)[C@H](O)C1 [Example 277]	< 1000	–
O=S(=O)(c1cc(-c2nc(-c3ccc(Br)c(F)c3)c[nH]2)ccc1Cl)N1CCC[C@H](O)[C@@H](O)C1 [Example 278]	< 1000	–
O=S(=O)(c1cc(-c2nc(-c3ccc(Br)c(F)c3)c[nH]2)ccc1Cl)N1CCN(c2ncccc2Cl)CC1 [Example 279]	< 1000	–
O=S(=O)(c1cc(-c2nc(-c3ccc(Br)c(F)c3)c[nH]2)ccc1Cl)N1CCN(c2cc(Cl)ccn2)CC1 [Example 280]	< 1000	–
O=S(=O)(c1cc(-c2nc(-c3ccc(Br)c(F)c3)c[nH]2)ccc1Cl)N1CCN(c2ccc(Cl)cn2)CC1 [Example 281]	< 1000	–
O=S(=O)(c1cc(-c2nc(-c3ccc(Br)c(F)c3)c[nH]2)ccc1Cl)N1CCN(c2cccc(Cl)n2)CC1 [Example 282]	< 1000	–
O=S(=O)(c1cc(-c2nc(-c3ccc(Br)c(F)c3)c[nH]2)ccc1Cl)N1C[C@H](O)CC[C@@H](O)C1 [Example 283]	< 1000	–
O=S(=O)(c1cc(-c2nc(-c3ccc(Br)c(F)c3)c[nH]2)ccc1Cl)N1C[C@H](O)CC[C@H](O)C1 [Example 284]	< 1000	–

From patent US10442788B2, “Hepatitis B antiviral agents” (ENANTA PHARMACEUTICALS, INC., priority 2015, dated 2019)
